In US20230391760A1, “HETEROCYCLIC GLP-1 AGONISTS” (Gasherbrum Bio, Inc., priority 2020, published 2023):

Target: GLP-1 Receptor (Homo sapiens, UniProt P43220)
Experiment: GLP-1R agonist cAMP stimulation assay (HEK293/GLP1R/CRE-LUC cells, cAMP dynamic 2 Kit)
Type: cell-based
Details: HEK293/CRE-Luc cell line stably expressing the GLP-1 Receptor, 30 min at 37° C.
Method in brief: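 HEK293 cells stably expressing human GLP-1R with CRE-luciferase, 1000 cells/well in DPBS with 0.5 mM IBMX and 0.1% BSA, treated with compound in 1/2-log serial dilution for 30 min at 37 °C. cAMP then detected by HTRF (cAMP-d2 plus anti-cAMP cryptate), 1 h at room temperature in the dark.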

Chain of GLP-1 Receptor (P43220 24-463, species assumed): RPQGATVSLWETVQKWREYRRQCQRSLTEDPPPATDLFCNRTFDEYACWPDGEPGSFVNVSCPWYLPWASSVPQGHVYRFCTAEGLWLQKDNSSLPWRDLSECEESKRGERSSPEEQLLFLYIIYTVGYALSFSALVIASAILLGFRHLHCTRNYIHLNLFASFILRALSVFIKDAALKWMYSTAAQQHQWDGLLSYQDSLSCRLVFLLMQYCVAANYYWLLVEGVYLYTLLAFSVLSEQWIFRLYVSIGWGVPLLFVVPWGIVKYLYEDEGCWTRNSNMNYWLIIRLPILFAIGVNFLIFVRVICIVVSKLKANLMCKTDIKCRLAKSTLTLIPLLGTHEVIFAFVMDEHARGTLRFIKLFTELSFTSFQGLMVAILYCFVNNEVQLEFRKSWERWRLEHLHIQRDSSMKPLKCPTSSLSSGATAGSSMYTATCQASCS

EC50 [nM] | SMILES
0.28 | CO[C@@H](C)Cn1c(CN2CCC(c3cccc4c3O[C@@](C)(c3ccc(C#N)cc3F)O4)CC2)nc2cc(-c3noc(=O)[nH]3)ncc21 [Compound 443a, 3-fluoro-4-[(2S)-4-[1-({3-[(2S)-2-methoxypropyl]-6-(5-oxo-4,5-dihydro-1,2,4-oxadiazol-3-yl)-3H-imidazo[4,5-c]pyridin-2-yl}methyl)piperidin-4-yl]-2-methyl-2H-1,3-benzodioxol-2-yl]benzonitrile]
0.0037 | C[C@]1(c2ccc(Cl)cc2F)Oc2cccc(C3CCN(Cc4nc5cc(-c6nnc(C#N)[nH]6)ncc5n4C[C@@H]4CCO4)CC3)c2O1 [Compound 444a, 5-[2-({4-[(2S)-2-(4-chloro-2-fluorophenyl)-2-methyl-2H-1,3-benzodioxol-4-yl]piperidin-1-yl}methyl)-3-{[(2S)-oxetan-2-yl]methyl}-3H-imidazo[4,5-c]pyridin-6-yl]-4H-1,2,4-triazole-3-carbonitrile]
2 | CO[C@@H](C)Cn1c(CN2CCC(c3cccc4c3OC(C)(c3ccc(Cl)cn3)O4)CC2)nc2cc(-c3nnc(C(F)(F)F)[nH]3)ncc21 (stereo partly drawn) [Compound 445a, 5-chloro-2-{4-[1-({3-[(2S)-2-methoxypropyl]-6-[5-(trifluoromethyl)-4H-1,2,4-triazol-3-yl]-3H-imidazo[4,5-c]pyridin-2-yl}methyl)piperidin-4-yl]-2-methyl-2H-1,3-benzodioxol-2-yl}pyridine]
0.12 | CC1(c2ccc(Cl)cc2)Oc2cccc(C3CCN(Cc4nc5cc(-c6nnc(C(F)(F)F)[nH]6)ccc5n4CC4(C#N)CC4)CC3)c2O1 (stereo not drawn) [Compound 446, 1-{[2-({4-[2-(4-chlorophenyl)-2-methyl-2H-1,3-benzodioxol-4-yl]piperidin-1-yl}methyl)-5-[5-(trifluoromethyl)-4H-1,2,4-triazol-3-yl]-1H-1,3-benzodiazol-1-yl]methyl}cyclopropane-1-carbonitrile]
0.019 | C[C@]1(c2ccc(C#N)cc2F)Oc2cccc(C3CCN(Cc4nc5cc(-c6nnc(C(F)(F)F)[nH]6)nnc5n4C[C@@H]4CCO4)CC3)c2O1 [Compound 447a, 3-fluoro-4-[(2S)-2-methyl-4-{1-[(7-{[(2S)-oxetan-2-yl]methyl}-3-[5-(trifluoromethyl)-4H-1,2,4-triazol-3-yl]-7H-imidazo[4,5-c]pyridazin-6-yl)methyl]piperidin-4-yl}-2H-1,3-benzodioxol-2-yl]benzonitrile]
0.011 | C[C@]1(c2ccc(Cl)cc2F)Oc2cccc(C3CCN(Cc4nc5cc(-c6nnc(C#N)[nH]6)nnc5n4C[C@@H]4CCO4)CC3)c2O1 [Compound 448a, 5-[6-({4-[(2S)-2-(4-chloro-2-fluorophenyl)-2-methyl-2H-1,3-benzodioxol-4-yl]piperidin-1-yl}methyl)-7-{[(2S)-oxetan-2-yl]methyl}-7H-imidazo[4,5-c]pyridazin-3-yl]-4H-1,2,4-triazole-3-carbonitrile]
0.016 | C[C@]1(c2ccc(Cl)cn2)Oc2cccc(C3CCN(Cc4nc5cc(-c6nnn[nH]6)ncc5n4C[C@@H]4CCO4)CC3)c2O1 [Compound 449a, 5-chloro-2-[(2S)-2-methyl-4-{1-[(3-{[(2S)-oxetan-2-yl]methyl}-6-(1H-1,2,3,4-tetrazol-5-yl)-3H-imidazo[4,5-c]pyridin-2-yl)methyl]piperidin-4-yl}-2H-1,3-benzodioxol-2-yl]pyridine]
0.062 | CC1(c2ccc(Cl)cn2)Oc2cccc(C3CCN(Cc4nc5cc(-c6nnn[nH]6)ncc5n4C[C@@H]4CCO4)CC3)c2O1 (stereo partly drawn) [Compound 450a, 5-chloro-2-(2-methyl-4-{1-[(3-{[(2S)-oxetan-2-yl]methyl}-6-(1H-1,2,3,4-tetrazol-5-yl)-3H-imidazo[4,5-c]pyridin-2-yl)methyl]piperidin-4-yl}-2H-1,3-benzodioxol-2-yl)pyridine]
0.21 | C[C@]1(c2ccc(Cl)cn2)Oc2cccc(C3CCN(Cc4nc5cc(-c6nnn[nH]6)cnc5n4C[C@@H]4CCO4)CC3)c2O1 [Compound 451a, 5-chloro-2-[(2S)-2-methyl-4-{1-[(3-{[(2S)-oxetan-2-yl]methyl}-6-(1H-1,2,3,4-tetrazol-5-yl)-3H-imidazo[4,5-b]pyridin-2-yl)methyl]piperidin-4-yl}-2H-1,3-benzodioxol-2-yl]pyridine]
0.14 | CO[C@H](C)Cn1c(CN2CCC(c3cccc4c3O[C@@](C)(c3ccc(Cl)cc3F)O4)CC2)nc2cc(-c3nnc(C(F)(F)F)[nH]3)nnc21 [Compound 452a, 4-[(2S)-2-(4-chloro-2-fluorophenyl)-2-methyl-2H-1,3-benzodioxol-4-yl]-1-({7-[(2R)-2-methoxypropyl]-3-[5-(trifluoromethyl)-4H-1,2,4-triazol-3-yl]-7H-imidazo[4,5-c]pyridazin-6-yl}methyl)piperidine]
1.9 | Cc1cc(=O)[nH]c(-c2cc3nc(CN4CCC(c5cccc(OCc6ccc(Cl)cc6F)n5)CC4)n(C[C@@H]4CCO4)c3cn2)n1 [Compound 453a, 2-{2-[(4-{6-[(4-chloro-2-fluorophenyl)methoxy]pyridin-2-yl}piperidin-1-yl)methyl]-3-{[(2S)-oxetan-2-yl]methyl}-3H-imidazo[4,5-c]pyridin-6-yl}-6-methyl-3,4-dihydropyrimidin-4-one]
0.17 | CO[C@@H](C)Cn1c(CN2CCC(c3cccc4c3O[C@@](C)(c3ccc(C#N)cc3F)O4)CC2)nc2cc(-c3nnc(C(F)(F)F)[nH]3)ncc21 [Compound 454a, 3-fluoro-4-[(2S)-4-[1-({3-[(2S)-2-methoxypropyl]-6-[5-(trifluoromethyl)-4H-1,2,4-triazol-3-yl]-3H-imidazo[4,5-c]pyridin-2-yl}methyl)piperidin-4-yl]-2-methyl-2H-1,3-benzodioxol-2-yl]benzonitrile]
0.12 | CO[C@H](C)Cn1c(CN2CCC(c3cccc4c3O[C@@](C)(c3ccc(Cl)cn3)O4)CC2)nc2cc(-c3nnc(C(F)(F)F)[nH]3)ncc21 [Compound 455a, 5-chloro-2-[(2S)-4-[1-({3-[(2R)-2-methoxypropyl]-6-[5-(trifluoromethyl)-4H-1,2,4-triazol-3-yl]-3H-imidazo[4,5-c]pyridin-2-yl}methyl)piperidin-4-yl]-2-methyl-2H-1,3-benzodioxol-2-yl]pyridine]
0.085 | Fc1cc(Cl)ccc1COc1cc(N2CCN(Cc3nc4cc(-c5nnc(C(F)(F)F)[nH]5)ncc4n3C[C@@H]3CCO3)CC2)ccc1F [Compound 456a, 1-{3-[(4-chloro-2-fluorophenyl)methoxy]-4-fluorophenyl}-4-[(3-{[(2S)-oxetan-2-yl]methyl}-6-[5-(trifluoromethyl)-4H-1,2,4-triazol-3-yl]-3H-imidazo[4,5-c]pyridin-2-yl)methyl]piperazine]
0.12 | Fc1cc(Cl)ccc1C1COc2cccc(C3CCN(Cc4nc5cc(-c6nnc(C(F)(F)F)[nH]6)ncc5n4C[C@@H]4CCO4)CC3)c2O1 (stereo partly drawn) [Compound 457a, 4-[3-(4-chloro-2-fluorophenyl)-2,3-dihydro-1,4-benzodioxin-5-yl]-1-[(3-{[(2S)-oxetan-2-yl]methyl}-6-[5-(trifluoromethyl)-4H-1,2,4-triazol-3-yl]-3H-imidazo[4,5-c]pyridin-2-yl)methyl]piperidine]
